“And” between values parts separate entries of the source, which are not always exact repeats. Equal entries are not always repeated. Toxic doses and inconclusive results are not listed. Peptide text beside a SMILES is read from it. * marks the point of attachment. Boc = CC(C)(C)OC(=O)*; OtBu = CC(C)(C)O*; NHNH2 = NN*
System: P388 leukemia ip, CD2F1 mice, survival T/C
Test: NCI In Vivo Anticancer Drug Screen. Data for tumor model P388 Leukemia (intraperitoneal) in CD2F1 (CDF1) mice
Settings: endpoint: median survival time, higher = longer survival
Method in brief: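 Mice carrying the transplanted tumor received test compound or vehicle. Survival was recorded in each group, and the value is the treated-group measurement divided by that of the vehicle-treated control group.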

[1] = dose: 25.0 mg/kg/injection, schedule: Q01DX005 (ip), vehicle: Klucel (hydroxypropylcellulose) (HPC)
[2] = dose: 50.0 mg/kg/injection, schedule: Q01DX005 (ip), vehicle: Klucel (hydroxypropylcellulose) (HPC)
[3] = dose: 100.0 mg/kg/injection, schedule: Q01DX005 (ip), vehicle: Klucel (hydroxypropylcellulose) (HPC)
[4] = dose: 200.0 mg/kg/injection, schedule: Q01DX005 (ip), vehicle: Klucel (hydroxypropylcellulose) (HPC)
[5] = dose: 60.0 mg/kg/injection, schedule: Q01DX005 (ip), vehicle: saline with Tween-80
[6] = dose: 12.5 mg/kg/injection, schedule: Q01DX009 (ip), vehicle: water
[7] = dose: 50.0 mg/kg/injection, schedule: Q01DX009 (ip), vehicle: water
[8] = dose: 12.5 mg/kg/injection, schedule: Q01DX009 (ip), vehicle: saline with Tween-80
[9] = dose: 25.0 mg/kg/injection, schedule: Q01DX009 (ip), vehicle: saline with Tween-80
[10] = dose: 50.0 mg/kg/injection, schedule: Q01DX009 (ip), vehicle: saline with Tween-80
[11] = dose: 100.0 mg/kg/injection, schedule: Q01DX009 (ip), vehicle: saline with Tween-80
[12] = dose: 50.0 mg/kg/injection, schedule: Q01DX005 (ip), vehicle: saline with Tween-80
[13] = dose: 100.0 mg/kg/injection, schedule: Q01DX005 (ip), vehicle: saline with Tween-80
[14] = dose: 200.0 mg/kg/injection, schedule: Q01DX009 (ip), vehicle: saline with Tween-80

## CCC1C2C(C(C)c3c[nH]c4ccccc34)NC(=O)C23C(=O)/C=C\C(=O)C(O)/C(C)=C/C(C)C/C=C/C3C2OC12C (centres undefined)
dose: 0.38 mg/kg/injection, schedule: Q01DX005 (ip), vehicle: Klucel (hydroxypropylcellulose) (HPC)
  T/C: 105 % of control and 108 % of control
dose: 0.75 mg/kg/injection, schedule: Q01DX005 (ip), vehicle: Klucel (hydroxypropylcellulose) (HPC)
  T/C: 110 % of control and 118 % of control
dose: 1.5 mg/kg/injection, schedule: Q01DX005 (ip), vehicle: Klucel (hydroxypropylcellulose) (HPC)
  T/C: 106 % of control and 122 % of control

## CCOC(=O)Nc1nc2ccccc2n1CN1CCOCC1
[1]
  T/C: 106 % of control
[2]
  T/C: 106 % of control
[3]
  T/C: 105 % of control
[4]
  T/C: 115 % of control

## CC1(COCCOCC2(C)CO2)CO1 (centres undefined)
dose: 100.0 mg/kg/injection, schedule: Q01DX009 (ip), vehicle: saline
  T/C: 118 % of control
dose: 100.0 mg/kg/injection, schedule: Q04DX003 (ip), vehicle: saline
  T/C: 100 % of control
dose: 200.0 mg/kg/injection, schedule: Q04DX003 (ip), vehicle: saline
  T/C: 113 % of control
dose: 400.0 mg/kg/injection, schedule: Q01DX009 (ip), vehicle: saline sonified
  T/C: 177 % of control
dose: 400.0 mg/kg/injection, schedule: Q01DX009 (ip), vehicle: saline
  T/C: 172 % of control
dose: 400.0 mg/kg/injection, schedule: Q04DX003 (ip), vehicle: saline
  T/C: 109 % of control
dose: 600.0 mg/kg/injection, schedule: Q01DX009 (ip), vehicle: saline sonified
  T/C: 200 % of control

## Nc1[nH]c(=O)ncc1-c1cccc(Cl)c1
dose: 15.0 mg/kg/injection, schedule: Q01DX005 (ip), vehicle: saline with Tween-80
  T/C: 103 % of control
dose: 30.0 mg/kg/injection, schedule: Q01DX005 (ip), vehicle: saline with Tween-80
  T/C: 104 % of control
[5]
  T/C: 106 % of control and 96 % of control

## CCCCc1c(O)c2c(=O)n(C)c(=O)n3c4ccccc4n(c1=O)c23
[5]
  T/C: 100 % of control
dose: 120.0 mg/kg/injection, schedule: Q01DX005 (ip), vehicle: saline with Tween-80
  T/C: 89 % of control
dose: 240.0 mg/kg/injection, schedule: Q01DX005 (ip), vehicle: saline with Tween-80
  T/C: 90 % of control

## COc1cc2c(cc1OC)-c1cc3cc(OC)c(OC)cc3c(C)[n+]1CC2 (tested in a mixture with another compound)
dose: 1.56 mg/kg/injection, schedule: Q01DX009 (ip), vehicle: water
  T/C: 102 % of control
dose: 3.13 mg/kg/injection, schedule: Q01DX009 (ip), vehicle: water
  T/C: 102 % of control
dose: 6.25 mg/kg/injection, schedule: Q01DX009 (ip), vehicle: water
  T/C: 111 % of control
[6]
  T/C: 118 % of control
dose: 14.8 mg/kg/injection, schedule: Q01DX009 (ip), vehicle: water
  T/C: 113 % of control
dose: 22.0 mg/kg/injection, schedule: Q01DX009 (ip), vehicle: water
  T/C: 109 % of control
dose: 33.0 mg/kg/injection, schedule: Q01DX009 (ip), vehicle: water
  T/C: 117 % of control
[7]
  T/C: 116 % of control
dose: 75.0 mg/kg/injection, schedule: Q01DX009 (ip), vehicle: water
  T/C: 97 % of control

## COC(=O)c1ccccc1N1C(=O)c2ccccc2NP1(=O)Oc1ccccc1 (centres undefined)
[1]
  T/C: 101 % of control
[2]
  T/C: 104 % of control
[3]
  T/C: 106 % of control
[4]
  T/C: 91 % of control

## CCOC(=O)N(C)C(C)=O
dose: 6.25 mg/kg/injection, schedule: Q01DX009 (ip), vehicle: saline with Tween-80
  T/C: 100 % of control
[8]
  T/C: 97 % of control
[9]
  T/C: 106 % of control
[10]
  T/C: 104 % of control
[11]
  T/C: 96 % of control
dose: 200.0 mg/kg/injection, schedule: Q01DX009 (ip), vehicle: saline
  T/C: 103 % of control

## CCC(C)C(NC(=O)CNC(=O)OC(C)(C)C)C(=O)NC(C(=O)NC(CCC(=O)OC(C)(C)C)C(=O)NN)C(C)C (centres undefined) (Boc-GIVE(OtBu)-NHNH2; configuration not given here)
dose: 6.25 mg/kg/injection, schedule: Q01DX001 (ip), vehicle: saline with Tween-80
  T/C: 100 % of control
dose: 12.5 mg/kg/injection, schedule: Q01DX001 (ip), vehicle: saline with Tween-80
  T/C: 100 % of control
dose: 25.0 mg/kg/injection, schedule: Q01DX001 (ip), vehicle: saline with Tween-80
  T/C: 95 % of control

## O=S1(=O)N2CN3CN(C2)CN1C3
dose: 6.25 mg/kg/injection, schedule: Q04DX003 (ip), vehicle: Klucel (hydroxypropylcellulose) (HPC)
  T/C: 106 % of control
dose: 12.5 mg/kg/injection, schedule: Q04DX003 (ip), vehicle: Klucel (hydroxypropylcellulose) (HPC)
  T/C: 104 % of control
dose: 25.0 mg/kg/injection, schedule: Q04DX003 (ip), vehicle: Klucel (hydroxypropylcellulose) (HPC)
  T/C: 111 % of control
dose: 50.0 mg/kg/injection, schedule: Q04DX003 (ip), vehicle: Klucel (hydroxypropylcellulose) (HPC)
  T/C: 106 % of control

## Cc1c(COC(=O)NC(C)C)c(COC(=O)NC(C)C)c2n1CS(=O)(=O)C2
dose: 25.0 mg/kg/injection, schedule: Q01DX005 (ip), vehicle: saline with Tween-80
  T/C: 159 % of control
[12]
  T/C: 184 % of control and 188 % of control
[13]
  T/C: 218 % of control

## C/C(N=NC(=S)N1CCCCC1)=C1\C=CC=CN1O
[12]
  T/C: 106 % of control
[13]
  T/C: 98 % of control
dose: 200.0 mg/kg/injection, schedule: Q01DX005 (ip), vehicle: saline with Tween-80
  T/C: 105 % of control

## CP1(=S)C=C(N2CCOCC2)CC1 (centres undefined)
dose: 50.0 mg/kg/injection, schedule: Q01DX009 (ip), vehicle: Klucel (hydroxypropylcellulose) (HPC)
  T/C: 100 % of control
dose: 100.0 mg/kg/injection, schedule: Q01DX009 (ip), vehicle: Klucel (hydroxypropylcellulose) (HPC)
  T/C: 100 % of control
dose: 200.0 mg/kg/injection, schedule: Q01DX009 (ip), vehicle: Klucel (hydroxypropylcellulose) (HPC)
  T/C: 86 % of control

## C[CH2][Sn]1([CH2]C)[O]S(=O)(=O)[O]1
dose: 1.56 mg/kg/injection, schedule: Q01DX005 (ip), vehicle: saline
  T/C: 124 % of control

## O=C(O)CCCC#C/C=C/CCCC/C=C(Br)\C=C/Br
dose: 62.5 mg/kg/injection, schedule: Q01DX009 (ip), vehicle: olive oil, sesame oil, peanut oil
  T/C: 106 % of control
dose: 125.0 mg/kg/injection, schedule: Q01DX009 (ip), vehicle: olive oil, sesame oil, peanut oil
  T/C: 96 % of control
dose: 250.0 mg/kg/injection, schedule: Q01DX009 (ip), vehicle: olive oil, sesame oil, peanut oil
  T/C: 100 % of control

## COC(=O)C(C)C(O)C(C)N (centres undefined)
[6]
  T/C: 107 % of control
dose: 25.0 mg/kg/injection, schedule: Q01DX009 (ip), vehicle: water
  T/C: 118 % of control
[7]
  T/C: 106 % of control
dose: 100.0 mg/kg/injection, schedule: Q01DX009 (ip), vehicle: water
  T/C: 98 % of control
dose: 200.0 mg/kg/injection, schedule: Q01DX009 (ip), vehicle: water
  T/C: 100 % of control

## CNC(=O)n1cnc2ccccc21
[11]
  T/C: 110 % of control and 111 % of control
[14]
  T/C: 105 % of control and 118 % of control
dose: 400.0 mg/kg/injection, schedule: Q01DX009 (ip), vehicle: saline with Tween-80
  T/C: 120 % of control and 124 % of control

## CC(=O)NC1C(S[As](C)C)OC(COC(C)=O)C(OC(C)=O)C1OC(C)=O (centres undefined)
[8]
  T/C: 102 % of control
[9]
  T/C: 113 % of control
[10]
  T/C: 116 % of control
[14]
  T/C: 115 % of control

## C/C=C/C(/C=C/C)(C(=O)OCCN(CC)CC)C(/C=C/C)(/C=C/C)C(=O)OCCN(CC)CC
dose: 50.0 mg/kg/injection, schedule: Q01DX005 (ip), vehicle: saline
  T/C: 101 % of control
dose: 100.0 mg/kg/injection, schedule: Q01DX005 (ip), vehicle: saline
  T/C: 101 % of control
dose: 200.0 mg/kg/injection, schedule: Q01DX005 (ip), vehicle: saline
  T/C: 97 % of control

## C=CC(COC(=O)C(Cl)(Cl)Cl)NC(=O)C(Cl)(Cl)Cl (centres undefined)
dose: 6.25 mg/kg/injection, schedule: Q01DX005 (ip), vehicle: distilled water + Tween-80
  T/C: 100 % of control
dose: 12.5 mg/kg/injection, schedule: Q01DX005 (ip), vehicle: distilled water + Tween-80
  T/C: 90 % of control
dose: 25.0 mg/kg/injection, schedule: Q01DX005 (ip), vehicle: distilled water + Tween-80
  T/C: 100 % of control
dose: 50.0 mg/kg/injection, schedule: Q01DX005 (ip), vehicle: distilled water + Tween-80
  T/C: 100 % of control
dose: 100.0 mg/kg/injection, schedule: Q01DX005 (ip), vehicle: distilled water + Tween-80
  T/C: 95 % of control

Source: PubChem BioAssay AID330 (DTP/NCI, 2004)
